# Assay results reported in ChEMBL document CHEMBL1201862, “PubChem BioAssay data set” (2004).
# Calls of active or inactive are those of the source.
# Columns and labels:
# Beta-galactosidase = Beta-galactosidase (Escherichia coli, UniProt Q8VNN2); assay: Dose response counterscreen for EBI2 assay utilizing the enzyme, b-galactosidase.; format: functional
# Galanin receptor type 3 = target: T1, Galanin receptor type 3 (Homo sapiens, UniProt O60755); assay: Fluorescence-based cell-based primary high throughput dose response assay to identify antagonists of the Galanin Receptor 3 (GalR3).; format: functional
# T1 sequence (O60755 whole entry): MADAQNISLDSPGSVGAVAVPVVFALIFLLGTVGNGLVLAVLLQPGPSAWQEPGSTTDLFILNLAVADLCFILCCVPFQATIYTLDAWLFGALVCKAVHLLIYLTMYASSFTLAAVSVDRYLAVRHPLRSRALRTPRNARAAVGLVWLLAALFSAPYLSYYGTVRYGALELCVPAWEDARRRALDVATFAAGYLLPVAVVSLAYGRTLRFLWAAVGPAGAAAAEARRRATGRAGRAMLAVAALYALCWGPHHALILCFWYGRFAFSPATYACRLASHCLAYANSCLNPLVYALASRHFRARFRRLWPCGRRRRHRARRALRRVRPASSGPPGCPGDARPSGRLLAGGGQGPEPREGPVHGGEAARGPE
# cells = format: functional, cell-based; settings: HEK-CNG
# Kallikrein-7 = Kallikrein-7 (Homo sapiens, UniProt P49862); assay: Fluorescence Intensity-based biochemical primary high throughput dose response assay to identify activators of kallikrein-7 (K7) zymogen.
# [1] = target: T2, Corticotropin-releasing factor receptor 2/Corticotropin-releasing factor-binding protein (Homo sapiens, UniProt P24387+Q13324); assay: activators of CRF receptor 2 with binding protein – uHTS hits, confirmation (AID 602473); format: functional; settings: read-out: EC50_Mean
# T2 sequence (Q13324 whole entry): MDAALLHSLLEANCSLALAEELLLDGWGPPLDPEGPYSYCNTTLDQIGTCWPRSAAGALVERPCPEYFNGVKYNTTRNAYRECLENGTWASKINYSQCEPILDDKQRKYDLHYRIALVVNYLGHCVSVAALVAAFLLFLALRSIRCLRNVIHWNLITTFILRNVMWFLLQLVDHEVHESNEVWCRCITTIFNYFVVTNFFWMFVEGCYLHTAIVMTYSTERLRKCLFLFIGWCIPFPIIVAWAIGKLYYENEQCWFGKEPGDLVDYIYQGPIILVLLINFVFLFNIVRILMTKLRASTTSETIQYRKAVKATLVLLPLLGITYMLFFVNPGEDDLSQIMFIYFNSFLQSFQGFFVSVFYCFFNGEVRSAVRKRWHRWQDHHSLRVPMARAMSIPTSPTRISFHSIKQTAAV
# T2 sequence (P24387 whole entry): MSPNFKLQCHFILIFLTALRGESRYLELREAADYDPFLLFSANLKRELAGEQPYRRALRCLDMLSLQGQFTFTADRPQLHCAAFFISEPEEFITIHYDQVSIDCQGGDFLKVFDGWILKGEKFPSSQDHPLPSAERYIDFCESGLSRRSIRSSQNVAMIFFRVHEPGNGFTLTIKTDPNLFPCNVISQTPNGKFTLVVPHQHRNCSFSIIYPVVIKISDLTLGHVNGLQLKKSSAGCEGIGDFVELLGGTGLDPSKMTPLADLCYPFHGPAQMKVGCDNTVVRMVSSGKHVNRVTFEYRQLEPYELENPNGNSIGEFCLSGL
# HEK293 = assay: EBV LMP1 TES2 canonical NF-kB signalling blockers – cell-based, HEK293, luciferase, cherry-pick, dose response (AID 588343); format: functional, Homo sapiens; settings: Homo sapiens, HEK293
# Interleukin-8 [2] = target: T3, Interleukin-8 (Homo sapiens, UniProt P10145); assay: Dose Response confirmation of uHTS small molecule hits for cystic fibrosis induced NFkb Inhibitors in a TNFa-induced IL8 counterscreen.; format: functional; settings: read-out: IC50_Mean
# T3 sequence (P10145 whole entry): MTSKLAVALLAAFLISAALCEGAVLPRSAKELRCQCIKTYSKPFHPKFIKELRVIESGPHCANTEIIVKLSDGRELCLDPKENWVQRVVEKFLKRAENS
# [3] = target: T4, Heat shock factor protein 1 (Mus musculus, UniProt P38532); assay: decrease of HSF1-responsive luciferase luminescence – cell-based, NIH3T3, dose retest, confirmation (AID 2382); format: functional;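 also: NIH3T3 fibroblasts with HSF1-driven luciferase reporter stressed by proteasome inhibitor MG132; luminescence from HSF1-driven luciferase expression after 8 hours of MG132 stress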
# T4 sequence (P38532 whole entry): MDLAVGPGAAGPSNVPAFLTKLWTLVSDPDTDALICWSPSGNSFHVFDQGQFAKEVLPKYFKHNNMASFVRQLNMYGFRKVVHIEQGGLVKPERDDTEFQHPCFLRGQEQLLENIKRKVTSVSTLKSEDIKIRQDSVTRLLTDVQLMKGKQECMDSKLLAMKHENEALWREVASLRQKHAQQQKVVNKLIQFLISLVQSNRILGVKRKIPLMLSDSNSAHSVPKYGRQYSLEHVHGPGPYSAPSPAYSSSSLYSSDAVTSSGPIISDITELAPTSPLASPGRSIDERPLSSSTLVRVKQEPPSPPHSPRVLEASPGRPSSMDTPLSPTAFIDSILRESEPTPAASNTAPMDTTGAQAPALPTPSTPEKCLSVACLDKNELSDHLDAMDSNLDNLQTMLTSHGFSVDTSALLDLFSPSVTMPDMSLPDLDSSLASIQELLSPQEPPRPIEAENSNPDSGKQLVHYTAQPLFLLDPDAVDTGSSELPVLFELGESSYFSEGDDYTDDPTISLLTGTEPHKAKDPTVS
# Interleukin-8 [4] = target: T3, Interleukin-8; assay: Dose Response confirmation of uHTS small molecule hits for cystic fibrosis induced NFkb Inhibitors in a PAF-induced IL8 counterscreen.; format: functional; settings: read-out: IC50_Mean
# [5] = viability loss in HeLa cells – cytotoxicity control for MgcRacGAP inhibitor project, dose response (AID 624300); format: functional
# Cytochrome P450 2D6 = Cytochrome P450 2D6 (Homo sapiens, UniProt P10635);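 also: CYP2D6 member of a cytochrome P450 panel assay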
# [6] = target: FAD-linked sulfhydryl oxidase ALR (Homo sapiens, UniProt P55789); assay: ALR-catalysed DTT oxidation blockers – biochemical, H2O2 detection, luminescence, cherry-pick, dose response (AID 493248)
# [7] = target: T5, Methionyl-tRNA synthetase, putative (Trypanosoma brucei brucei, UniProt Q38C91); format: functional, Trypanosoma brucei brucei strain 927/4 GUTat10.1
# T5 sequence (Q38C91 whole entry): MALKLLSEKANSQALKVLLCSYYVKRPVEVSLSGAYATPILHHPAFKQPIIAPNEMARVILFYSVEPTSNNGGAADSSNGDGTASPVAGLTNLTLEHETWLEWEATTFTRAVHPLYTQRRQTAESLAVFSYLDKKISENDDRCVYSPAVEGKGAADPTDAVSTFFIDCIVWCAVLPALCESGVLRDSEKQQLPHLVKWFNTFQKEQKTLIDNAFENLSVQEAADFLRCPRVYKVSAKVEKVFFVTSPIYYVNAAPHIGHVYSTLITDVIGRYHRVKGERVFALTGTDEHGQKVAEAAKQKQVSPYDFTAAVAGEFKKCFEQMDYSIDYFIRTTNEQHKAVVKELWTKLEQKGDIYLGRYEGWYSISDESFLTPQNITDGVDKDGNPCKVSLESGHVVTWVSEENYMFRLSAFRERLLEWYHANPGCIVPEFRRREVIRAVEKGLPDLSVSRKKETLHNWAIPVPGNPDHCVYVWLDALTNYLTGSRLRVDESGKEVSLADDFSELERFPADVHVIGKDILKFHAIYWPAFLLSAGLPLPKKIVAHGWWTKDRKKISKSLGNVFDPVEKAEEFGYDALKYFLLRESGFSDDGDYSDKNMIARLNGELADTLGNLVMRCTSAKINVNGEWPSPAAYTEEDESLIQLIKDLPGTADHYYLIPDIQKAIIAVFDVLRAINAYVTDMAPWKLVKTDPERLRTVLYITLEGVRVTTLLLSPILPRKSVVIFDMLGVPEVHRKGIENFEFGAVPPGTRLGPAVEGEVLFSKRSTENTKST
# [8] = target: T6, Rac GTPase-activating protein 1 (Homo sapiens, UniProt Q9H0H5); assay: blockers of MgcRacGAP-driven Rac1 GTP hydrolysis – biochemical, ADP Hunter fluorescence, primary and confirmatory, confirmation (AID 624330); format: functional
# T6 sequence (Q9H0H5 whole entry): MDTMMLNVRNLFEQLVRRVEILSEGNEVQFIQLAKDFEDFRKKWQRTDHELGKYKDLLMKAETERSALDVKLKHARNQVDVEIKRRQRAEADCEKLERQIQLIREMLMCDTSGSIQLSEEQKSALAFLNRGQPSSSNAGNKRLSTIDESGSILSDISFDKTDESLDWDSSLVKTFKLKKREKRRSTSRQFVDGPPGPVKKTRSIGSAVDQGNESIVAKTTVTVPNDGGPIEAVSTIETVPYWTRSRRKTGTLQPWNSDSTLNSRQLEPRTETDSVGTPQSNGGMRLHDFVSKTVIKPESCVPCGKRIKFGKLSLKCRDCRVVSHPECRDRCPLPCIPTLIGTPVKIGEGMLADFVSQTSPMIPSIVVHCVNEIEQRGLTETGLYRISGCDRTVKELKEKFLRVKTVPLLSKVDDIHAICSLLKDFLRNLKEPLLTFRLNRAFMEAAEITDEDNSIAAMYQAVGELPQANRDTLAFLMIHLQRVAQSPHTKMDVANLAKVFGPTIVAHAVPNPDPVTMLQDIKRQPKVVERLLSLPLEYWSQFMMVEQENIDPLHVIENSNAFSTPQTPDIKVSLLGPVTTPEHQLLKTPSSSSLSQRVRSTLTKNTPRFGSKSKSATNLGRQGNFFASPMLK
# [9] = Counterscreen for inhibitors of Trypanosoma brucei methionyl tRNA synthetase (MetRS): Luminescence-based cell-based high throughput dose response assay to identify compounds that are cytotoxic to Jurkat human T lymphocyte cells.; format: functional
# [10] = target: T5, Methionyl-tRNA synthetase, putative; format: functional, Trypanosoma brucei brucei strain 927/4 GUTat10.1; remark: listed apart in the source
# fMet-Leu-Phe receptor = target: T7, fMet-Leu-Phe receptor (Homo sapiens, UniProt P21462); assay: formyl peptide receptor binders – dose response (AID 519); format: functional
# T7 sequence (P21462 whole entry): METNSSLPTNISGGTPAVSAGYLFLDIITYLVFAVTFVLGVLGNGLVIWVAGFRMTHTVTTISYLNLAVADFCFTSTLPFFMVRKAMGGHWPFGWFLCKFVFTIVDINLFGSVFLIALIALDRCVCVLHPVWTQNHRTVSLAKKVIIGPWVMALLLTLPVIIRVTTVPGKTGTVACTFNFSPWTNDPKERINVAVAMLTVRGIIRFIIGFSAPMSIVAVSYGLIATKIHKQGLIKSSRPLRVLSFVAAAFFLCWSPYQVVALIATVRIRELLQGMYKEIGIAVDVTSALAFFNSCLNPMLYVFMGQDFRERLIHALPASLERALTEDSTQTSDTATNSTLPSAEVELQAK
# [11] = target: T8, Probable nicotinate-nucleotide adenylyltransferase (Staphylococcus aureus (strain N315), UniProt P65502); format: functional, Staphylococcus aureus subsp. aureus N315;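 as to IC50 Mean: confirmatory dose-response retesting of NadD inhibitor hits first found in an ultra-high-throughput screen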
# [12] = target: T8, Probable nicotinate-nucleotide adenylyltransferase; format: functional, Staphylococcus aureus subsp. aureus N315; settings: read-out: IC50_Mean
# [13] = reduced cellular PGC1a acetyl-lysine signal – cell-based, cherry-picked samples, dose response (AID 720514); format: functional;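 also: potency may reflect raised or lowered acetylation signal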
# [14] = viability of uninfected HEp-2 cells – cell-based, HTS, cytotoxicity control for RSV inhibitor project, dose response (AID 2410); format: functional; settings: human respiratory syncytial virus
# Kallikrein-7, sequence (P49862 whole entry): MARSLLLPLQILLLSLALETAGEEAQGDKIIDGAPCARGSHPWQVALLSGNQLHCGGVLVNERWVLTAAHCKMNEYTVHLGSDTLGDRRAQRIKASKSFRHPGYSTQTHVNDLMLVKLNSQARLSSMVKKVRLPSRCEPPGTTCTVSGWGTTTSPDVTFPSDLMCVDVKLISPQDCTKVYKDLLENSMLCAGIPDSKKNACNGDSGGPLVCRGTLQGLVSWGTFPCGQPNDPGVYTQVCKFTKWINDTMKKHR
# Beta-galactosidase, sequence (Q8VNN2 whole entry): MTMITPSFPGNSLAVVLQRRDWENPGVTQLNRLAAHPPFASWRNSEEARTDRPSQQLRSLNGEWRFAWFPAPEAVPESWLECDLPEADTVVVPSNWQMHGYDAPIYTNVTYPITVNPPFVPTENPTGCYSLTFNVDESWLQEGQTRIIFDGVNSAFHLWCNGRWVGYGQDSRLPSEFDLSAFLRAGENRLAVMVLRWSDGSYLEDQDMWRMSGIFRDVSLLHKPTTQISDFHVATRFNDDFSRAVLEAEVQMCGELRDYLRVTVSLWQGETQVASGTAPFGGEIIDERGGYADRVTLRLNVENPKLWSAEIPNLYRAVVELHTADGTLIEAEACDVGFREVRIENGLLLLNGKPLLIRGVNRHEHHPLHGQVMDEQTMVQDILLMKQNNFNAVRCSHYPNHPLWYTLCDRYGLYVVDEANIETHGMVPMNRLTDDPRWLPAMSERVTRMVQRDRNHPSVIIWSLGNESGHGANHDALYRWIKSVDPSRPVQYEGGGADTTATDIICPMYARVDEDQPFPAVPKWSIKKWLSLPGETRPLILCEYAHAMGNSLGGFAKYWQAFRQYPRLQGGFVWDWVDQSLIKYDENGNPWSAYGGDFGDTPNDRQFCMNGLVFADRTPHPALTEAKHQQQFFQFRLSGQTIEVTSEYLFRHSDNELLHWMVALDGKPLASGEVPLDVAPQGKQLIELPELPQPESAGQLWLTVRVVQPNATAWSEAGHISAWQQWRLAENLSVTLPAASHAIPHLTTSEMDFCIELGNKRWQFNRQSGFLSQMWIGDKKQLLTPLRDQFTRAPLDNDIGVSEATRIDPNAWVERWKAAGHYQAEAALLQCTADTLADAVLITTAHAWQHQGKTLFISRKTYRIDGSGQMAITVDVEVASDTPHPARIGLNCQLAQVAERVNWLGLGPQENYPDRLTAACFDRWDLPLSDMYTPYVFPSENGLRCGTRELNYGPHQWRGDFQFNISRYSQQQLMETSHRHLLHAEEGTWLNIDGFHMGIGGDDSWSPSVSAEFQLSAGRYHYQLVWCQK
# T8 sequence (P65502 whole entry): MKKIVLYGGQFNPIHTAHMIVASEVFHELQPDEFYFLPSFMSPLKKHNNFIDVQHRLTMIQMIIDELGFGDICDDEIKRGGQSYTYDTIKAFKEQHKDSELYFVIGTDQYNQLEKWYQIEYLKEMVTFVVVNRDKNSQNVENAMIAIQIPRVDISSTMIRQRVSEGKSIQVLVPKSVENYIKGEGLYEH
# Cytochrome P450 2D6, sequence (P10635 whole entry): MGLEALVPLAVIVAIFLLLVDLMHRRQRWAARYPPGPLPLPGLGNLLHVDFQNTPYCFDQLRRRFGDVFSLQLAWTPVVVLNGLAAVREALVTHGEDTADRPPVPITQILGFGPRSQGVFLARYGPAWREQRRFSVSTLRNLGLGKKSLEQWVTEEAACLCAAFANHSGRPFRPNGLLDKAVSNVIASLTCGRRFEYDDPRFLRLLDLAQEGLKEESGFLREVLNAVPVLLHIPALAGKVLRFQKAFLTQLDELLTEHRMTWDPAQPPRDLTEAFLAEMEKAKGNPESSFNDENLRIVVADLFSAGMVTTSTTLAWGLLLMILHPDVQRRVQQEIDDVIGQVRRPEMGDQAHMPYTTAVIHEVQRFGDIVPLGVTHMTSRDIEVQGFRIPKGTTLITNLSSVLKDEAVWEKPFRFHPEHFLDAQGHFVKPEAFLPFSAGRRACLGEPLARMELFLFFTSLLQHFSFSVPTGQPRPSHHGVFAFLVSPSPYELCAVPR
# FAD-linked sulfhydryl oxidase ALR, sequence (P55789 whole entry): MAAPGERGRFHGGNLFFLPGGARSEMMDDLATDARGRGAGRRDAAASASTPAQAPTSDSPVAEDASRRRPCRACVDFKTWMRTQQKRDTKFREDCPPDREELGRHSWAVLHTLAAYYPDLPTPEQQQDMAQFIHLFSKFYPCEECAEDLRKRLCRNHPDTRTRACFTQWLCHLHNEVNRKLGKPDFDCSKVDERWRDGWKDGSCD
smiles,measurement,setting,value
O=C(/C=C/c1cccs1)N1CCC2(CC1)Oc1ccc(Cl)cc1C(=O)C21CC(c2ccccc2)=NO1 (configuration not stated),IC50,Beta-galactosidase,> 80 µM (inactive)
CCCCC[C@H](O)/C=C/[C@H]1CCC(=O)[C@@H]1CCCCCCC(=O)N1CCCCC1CO (some centres not stated),IC50,Galanin receptor type 3,3.54 µM (active)
same,EC50,cells,> 29.9 µM (inactive)
CCOC(=O)c1cnc2c(C(=O)OC)cccc2c1NCc1ccco1,EC50,Kallikrein-7,> 69.5 µM (inactive)
CCN1CCSc2ccc(C(=O)NCc3ccccc3F)cc21,EC50,[1],> 53 µM (inactive)
same,EC50,Kallikrein-7,> 69.5 µM (inactive)
CCCCN(c1ccccc1)c1ncnc(N)c1[N+](=O)[O-],AC50,HEK293,14.3 µM (active)
same,IC50,Interleukin-8 [2],39.7 µM (inactive)
same,EC50,[3],8.33 µM (active)
same,IC50,Interleukin-8 [4],> 79 µM (inactive)
CC(C)N(c1ccccc1)c1ccc(NC(S)=NCCN(C)C)cc1,CC50,[5],100 µM (active)
c1cncc(CNc2ncnc3ccc(-c4ccoc4)cc23)c1,AC50,HEK293,5.33 µM (active)
same,IC50,Interleukin-8 [2],> 79 µM (inactive)
same,IC50,Interleukin-8 [4],6.44 µM (active)
same,AC50,Cytochrome P450 2D6,25.1 µM (inconclusive)
COc1cc(/C=N/Nc2nc3ccccc3[nH]2)ccc1O,AC50,[6],1.16 µM (active)
same,CC50,[5],100 µM (active)
same,IC50,[7],102 µM (inactive)
same,IC50,[8],14 µM (active)
same,IC50,[9],83.3 µM (inactive)
same,IC50,[10],23.7 µM (inactive)
Cc1cccc(-n2nc3c(c2NC(=O)c2ccco2)CSC3)c1C,Ki,fMet-Leu-Phe receptor,22.9 µM (inactive)
same,IC50,[11],8.29 µM (active)
same,IC50,[12],17.8 µM (active)
CC(C)CC#Cc1ccc([C@H]2[C@H](CO)N3C(=O)CN(C(=O)Nc4cc(F)ccc4F)C[C@@H]23)cc1,AC50,[13],27.6 µM (active)
CN=C(S)N1N=C(c2ccc(C)cc2)CC1c1ccc(Cl)cc1 (configuration not stated),IC50,Beta-galactosidase,> 80 µM (inactive)
CCN(CC)c1ccc2c(C)c(CO)c(=O)oc2c1,CC50,[14],> 50 µM (active)
same,EC50,Kallikrein-7,6.34 µM (active)
CC(=O)NS(=O)(=O)c1ccc(NC(=O)/C=C/c2cn(-c3ccccc3)nc2-c2ccccc2)cc1,IC50,[7],12 µM (inactive)
same,IC50,[9],83.3 µM (inactive)
same,IC50,[10],49.8 µM (inactive)
CN=C(S)N1N=C(c2ccc(C)cc2)CC1c1ccc(Br)cc1 (configuration not stated),IC50,Beta-galactosidase,> 80 µM (inactive)
